# Test results as given in patent US5648347A, “Arylmorpholine, preparation and use” (Glaxo Wellcome Inc., priority 1991, dated 1997).
# Where a name gives a salt, the structure may show the parent alone.
# Tested on: tetrabenazine-induced sedation
# Experiment: Antitetrabenazine Test: prevention of tetrabenazine-induced sedation in mice
# Type: in vivo, Mouse (CD1 males)
# Conditions: 0.5 h; Antitetrabenazine Activity in the Mouse; compound ip 30 min before tetrabenazine hydrochloride (ip); scored 30 min after tetrabenazine; read-out: ED50 (amount of the test compound required to reverse the tetrabenazine effects in 50 percent of the animals tested)
# Protocol: Prevention of tetrabenazine-induced sedation was measured using a modification of the method of Vernier et al., First Hahnemann Symposium on Psychosomatic Medicine, ed. Nodim and Moyer, pub. Lea and Febiger, Philadelphia, 1962.
# Mice, groups of 12 CD1 males each, were injected intraperitoneally (ip) with the hydrochloride salt of a compound of formula (I) in physiological saline solution or with physiological saline solution alone. Thirty minutes later each of the mice was injected (ip, 35 mg/kg) with a solution of tetrabenazine hydrochloride. Thirty minutes after the injection of tetrabenazine each mouse was examined for its level of exploratory behavior which was scored on a modification of the arbitrary scale defined by Vernier et. al. The result reported in Table I as the ED50 value is the amount of the test compound required to reverse the tetrabenazine effects in 50 percent of the animals tested.
row,Compound,ED50
1,"C[C@H]1CO[C@H](c2cccc(F)c2)[C@@H](C)N1 (relative stereo) [Example 1, (+-)-(2R*,3R*,5S*)-2-(3-fluorophenyl)-3,5-dimethylmorpholine hydrochloride]",4 mg/kg
2,"C[C@H]1CO[C@H](c2cccc(F)c2F)[C@@H](C)N1 (relative stereo) [Example 7, (+-)-(2R*,3R*,5S*)-2-(2,3-difluorophenyl)-3,5-dimethylmorpholine hydrochloride]",4 mg/kg
3,"C[C@H]1CO[C@H](c2ccc(F)cc2)[C@@H](C)N1 (relative stereo) [Example 13, (+-)-(2R*,3R*,5S*)-2-(4-fluorophenyl)-3,5-dimethylmorpholine hydrochloride]",4 mg/kg
4,"C[C@@H]1[C@@H](c2cccc(F)c2)OC[C@H](C)N1C (relative stereo) [Example 14, (+-)-(2R*,3R*,5S*)-2-(3-fluorophenyl)-3,4,5-trimethylmorpholine hydrochloride]",8 mg/kg
5,"C[C@@H]1[C@@H](c2ccc(F)cc2)OC[C@H](C)N1C (relative stereo) [Example 18, (+-)-(2R*,3R*,5S*)-2-(4-fluorophenyl)-3,4,5-trimethylmorpholine]",6 mg/kg
6,"C[C@@H]1CO[C@@H](c2ccc(F)c(F)c2)[C@H](C)N1.Cl [Example 2, (2S,3S,5R)-2-(3,4-difluorophenyl)-3,5-dimethylmorpholine hydrochloride]",8 mg/kg
7,"C[C@H]1CO[C@H](c2ccc(F)cc2)[C@@H](C)N1 [Example 6, (2R,3R,5S)-2-(4-fluorophenyl)-3,5-dimethylmorpholine hydrochloride]",10 mg/kg
8,"C[C@@H]1CO[C@@H](c2ccc(F)cc2)[C@H](C)N1 [Example 12, (2S,3S,5R)-2-(4-fluorophenyl)-3,5-dimethylmorpholine hydrochloride]",6 mg/kg
9,"C[C@@H]1CO[C@@H](c2cccc(F)c2)[C@H](C)N1C [Example 16, (2S,3S,5R)-2-(3-fluorophenyl)-3,4,5-trimethylmorpholine hydrochloride]",8 mg/kg
